Reference: ChEMBL document CHEMBL1201862, “PubChem BioAssay data set” (2004)
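Briefly, cells in 96-well plates were exposed to five compound concentrations for 48 h, and endpoints were estimated by linear interpolation. GI50 marks 50% less growth.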 Active and inactive are the calls of the source. Rule as the data show it: active = GI50 up to about 1.1 µM and inactive = higher. Starred links: 1 amine or outer side, 2 acyl side, 3 side chain; linkers in the order of their positions; H or OH if unused. Non-standard residues stand in square brackets, D forms with d. Residues, ends and D or L forms follow the SMILES beside them. X41 = CSCCCC(N[*:1])C(=O)[*:2]

Tested on: BT-549
Assay: DTP human tumour cell line panel, 48 h

SMILES | GI50
COc1cc(/C=C/C=C2\CCC/C(=C\C=C\c3ccc(O)c(OC)c3)C2=O)ccc1O | 17.2 µM (inactive)
COc1cc(Nc2ccc3c(c2)CCC3)nc(OC)n1 | 33.3 µM (inactive)
CC(C)(C)Cc1cc(O)ccc1O | 93.3 µM (inactive)
CCCCCC(C)C[C@H]1CO[C@H](c2ccc[nH]2)N[C@H]1C(=O)OC (some centres not stated) | > 100 µM (inactive)
C[C@]12CC[C@H]3[C@@H](CC=C4C[C@@H](N5CCCC5)CC[C@@]43C)[C@@H]1C/C(=C\c1ccc([N+](=O)[O-])cc1)[C@@H]2O | 13.5 µM (inactive)
Cc1ccc2c(c1)C(=O)C(Cc1ccccc1C(=O)O)C2 (configuration not stated) | > 100 µM (inactive)
CN(C)CCn1nc(N)c2nc3cc(C(F)(F)F)ccc3nc21 | 99.8 µM (inactive)
CCC(=O)OCc1ccc2oc(=O)c(C(=O)Oc3cncc(Cl)c3)cc2c1 | > 100 µM (inactive)
Cc1ccc2[nH]c(=O)c(-c3cnc(O)nn3)c(O)c2c1 | 80.2 µM (inactive)
COC12CCCN1c1ccn(Cc3ccccc3)c(=O)c1C2=O (configuration not stated) | > 100 µM (inactive)
O=C1NC(N2CCOCC2)=N/C1=C\c1ccc(Cl)cc1 | > 100 µM (inactive)
CC(=O)CCNc1ccc(-c2cc(-c3ccc(N(C)C)cc3)nc3ccc4ccccc4c23)cc1 | 35.9 µM (inactive)
COC1C(=O)N(SC)C1c1ccccc1Cl (configuration not stated) | 23.4 µM (inactive)
NC1=NC(c2ccc(Cl)cc2)N(c2ccc(S(=O)(=O)Nc3ncccn3)cc2)C(N)=N1 (configuration not stated) | > 100 µM (inactive)
C=C1C(=O)O[C@@H]2/C=C(/C)[C@@H](OC(C)=O)C/C=C(\C)C(O)[C@@H](OC(=O)/C(C)=C\C)C12 (some centres not stated) | 20.1 µM (inactive)
CC1Cn2c(nc3ccccc32)NC1=O (configuration not stated) | > 100 µM (inactive)
Oc1c(CN2CCN(c3ccccc3)CC2)cc(Br)c2cccnc12 | 7.52 µM (inactive)
Cn1c2ccccc2n2c3ncccc3c(=S)c(C#N)c12 | > 100 µM (inactive)
Cc1oc2nc1C(=O)NCc1nc(cs1)C(=O)N[C@H](C(C)C)c1nc(cs1)C(=O)N[C@H]2C | > 100 µM (inactive)

SMILES | GI50
O=C1NC(=O)C(c2c[nH]c3cc(Br)ccc23)=C1c1cnc[nH]1 | 13.5 µM (inactive)
COC(=O)/C=C1\C(=O)Nc2ccc(Br)cc21 | 1.69 µM (inactive)
COCCCN1C(=O)C2c3[nH]c4ccccc4c3C3CCC(C(C)(C)C)CC3C2C1=O (configuration not stated) | 20.5 µM (inactive)
CN1C[C@@H]2CCCN2P1Oc1cccc2cccnc12 (some centres not stated) | > 100 µM (inactive)
Cc1nnc(-n2c(O)cc(=O)n(-c3ccccc3)c2=S)nc1/C=C/c1ccc(N(C)C)cc1 | 20.9 µM (inactive)
NS(=O)(=O)c1nn2c(Br)c(-c3ccccc3)nc2s1 | 2.97 µM (inactive)
Cc1cc2[nH]c3c(C#N)c(-c4ccccc4)c(/C=N/c4ccc(F)cc4)c(=O)n3c2cc1C | > 100 µM (inactive)
CC1CCN(C(C)C)P(=S)(Cc2ccccc2)O1 (configuration not stated) | 28.1 µM (inactive)
COc1ccc(/N=C2\C(=N/c3ccc(OC)cc3)N(S(=O)(=O)c3ccccc3)C(=S)N2c2ccc(OC)cc2)cc1 | > 100 µM (inactive)
Clc1ccccc1C(Nc1cnccn1)Nc1cnccn1 | > 100 µM (inactive)
Cc1sc2nc(-c3ccc(Cl)c([N+](=O)[O-])c3)c(/C=N/NC(=N)N)n2c1C | 1.7 µM (inactive)
COc1ccc(C(=O)C(CC2C(=O)CC(C)(C)C(C(=O)C(=O)Nc3c(C)cccc3C)C2=O)c2ccc(OC)cc2)cc1 (configuration not stated) | > 100 µM (inactive)
CSCCCC(NC(=O)CNC(=O)C1CCCN1C(=O)C(Cc1ccc(O)cc1)NC(=O)C(Cc1ccccc1)NC(=O)C(CCCNC(=N)N)NC(=O)C(CC(=O)O)NC(=O)C1CCCN1C(=O)C(CC(=O)O)NC(=O)C1CCCN1C(=O)C1CCCN1C(=O)CN)C(N)=O (configuration not stated) (H-GPPDPDRFYPG[X41]-NH2; configuration not given here) | > 50 µM (inactive)
NNC(=O)CS(=O)(=O)Nc1ncccn1 | > 100 µM (inactive)
CN(C)CCc1c2c(nc3ccccc13)C(=O)c1cccnc1C2=O | 0.268 µM (active)
O=C1c2cn[nH]c2N=C(Nc2ccccc2)C1/N=C/c1ccc([N+](=O)[O-])cc1 (configuration not stated) | > 10 µM (inactive)
COC(=O)[C@H](C)N1C(=O)N[C@@H](C(C)C)C1=O | > 100 µM (inactive)
CC1C(c2ccccc2O)c2cc3c(cc2OC1N1CCOCC1)OCO3 (configuration not stated) | 27.4 µM (inactive)
